What was measured:
NRK-49F cells = experiment: Collagen synthesis inhibition test; assay type: cell-based; conditions: Rattus norvegicus, 25 ng/mL TGF-β added, cultured about 44 hr, 3H-labeled proline taken into collagen, no TGF-β = 100% inhibition, no test compound = 0% inhibition, read-out: Collagen synthesis inhibiting activity IC50
Experimental: Collagen Synthesis Inhibition Test
Collagen synthesis inhibiting activity was evaluated by the following assay.
NRK-49F cells (Dainippon Pharmaceutical) are seeded into a 96-well plate. After becoming confluent, the medium is changed to a serum-free Dulbecco's modified MEM medium (Invitrogen) containing 5 μg/mL insulin, 5 μg/mL transferin, and 5 ng/mL selenious acid. One day later, the medium is changed to a serum-free Dulbecco's modified MEM medium (80 μl) containing 10 ng/mL IGF-II (Sigma) and 50 μg/mL L-ascorbic acid (Sigma), and a ten times concentration of a test compound (10 μl) is added thereto. Thirty minutes later, 25 ng/mL TGF-β (R&D System: 10 μL) is added to the medium, and the cells are cultured for about 44 hr. Twenty four hours before the termination of the culturing, ^3H-labeled proline (Amersham: 1 μCi) is added so as to be taken into collagen in the cells. When the culturing is terminated, 30% trichloroacetic acid (50 μL) is added to the medium. After leaving for 20 min, proteins are precipitated by centrifugation at 3000 rpm for 10 min. The supernatant is removed, and the residue is twice washed with 200 μL of a washing solution (ethanol:ether=3:1). The precipitate is air-dried, and the washing solution is sufficiently removed. After addition of 60 μL of a collagenase solution (2 mg/mL collagenase VII (Sigma), 50 mM Tris-HCl (pH 7.4), 5 mM CaCl2), the resulting mixture is treated at 37° C. for 2 hr to decompose collagen. Then, 90 μL of 15% trichloroacetic acid and 5% tannic acid are added thereto. The resulting mixture is left for 20 min and then centrifuged at 3000 rpm for 10 min. The supernatant (50 μL) is transferred to LumaPlate (PerkinElmer Lifescience) and is air-dried. Then, the amount of ^3H is measured by a Top Count.

**Q.** For Cc1cccc(-c2[nH]c(C(C)C)nc2-c2ccc(F)c(-c3cn(C)cn3)c2)n1 [Example 130, 2-{4-[4-Fluoro-3-(1-methyl-1H-imidazol-4-yl)phenyl]-2-isopropyl-1H-imidazol-5-yl}-6-methylpyridine], which IC50 (NRK-49F cells) is on record?
**A.** 180 nM

**Q.** And the melting point?
**A.** 100 to 103 °C

**Q.** What does the source list for Cc1cccc(-c2[nH]c(C(C)C)nc2-c2ccc(F)c(-c3c[nH]cn3)c2)n1 [Example 137, 2-{4-[4-Fluoro-3-(1H-imidazol-4-yl)phenyl]-2-isopropyl-1H-imidazol-5-yl}-6-methylpyridine]?
**A.** IC50 (NRK-49F cells): 70 nM; melting point: 268 to 270 °C

**Q.** With Cc1cccc(-c2n[nH]cc2-c2ccc(F)c(-c3ccc4c(c3)CCS4(=O)=O)c2)n1 [Example 146, 2-{4-[3-(1,1-Dioxido-2,3-dihydro-1-benzothien-5-yl)-4-fluorophenyl]-1H-pyrazol-3-yl}-6-methylpyridine] as the compound, how does the IC50 (NRK-49F cells) read?
**A.** 80 nM

**Q.** What about the melting point of the same compound?
**A.** 107 to 109 °C

**Q.** What does the source list for Cc1cccc(-c2n[nH]cc2-c2ccc(F)c(-c3ccc(C(C)(C)O)cn3)c2)n1 [Example 160, 2-(6-{2-Fluoro-5-[3-(6-methylpyridin-2-yl)-1H-pyrazol-4-yl]phenyl}pyridin-3-yl)propan-2-ol]?
**A.** IC50 (NRK-49F cells): 190 nM; melting point: 169 to 172 °C

**Q.** What does the source list for Cc1cccc(-c2n[nH]cc2-c2ccc(F)c(-c3c[nH]c(C(C)(C)O)n3)c2)n1 [Example 161, 2-(4-{2-Fluoro-5-[3-(6-methylpyridin-2-yl)-1H-pyrazol-4-yl]phenyl}-1H-imidazol-2-yl)propan-2-ol]?
**A.** IC50 (NRK-49F cells): 100 nM; melting point: 135 to 137 °C

**Q.** Which IC50 (NRK-49F cells) does the source give for Cc1cccc(-c2n[nH]cc2-c2ccc(F)c(-c3cn(C)cn3)c2)n1 [Example 172, 2-{4-[4-Fluoro-3-(1-methyl-1H-imidazol-4-yl)phenyl]-1H-pyrazol-3-yl}-6-methylpyridine] here?
**A.** 20 nM

**Q.** And the melting point?
**A.** 168 to 169 °C

**Q.** For Cc1cccc(-c2n[nH]cc2-c2ccc(F)c(-c3cn(CCO)cn3)c2)n1 [Example 177, 2-(4-{2-Fluoro-5-[3-(6-methylpyridin-2-yl)-1H-pyrazol-4-yl]phenyl}-1H-imidazol-1-yl)ethanol], which IC50 (NRK-49F cells) is on record?
**A.** 50 nM

**Q.** What about the melting point of the same compound?
**A.** 248 °C

**Q.** Which results are given for Cc1cccc(-c2n[nH]cc2-c2ccc(F)c(-c3ccc(N4CCOCC4)cn3)c2)n1 [Example 179, 4-(6-{2-Fluoro-5-[3-(6-methylpyridin-2-yl)-1H-pyrazol-4-yl]phenyl}pyridin-3-yl)morpholine]?
**A.** IC50 (NRK-49F cells): 40 nM; melting point: 88 to 90 °C

**Q.** Which results are given for Cc1cccc(-c2n[nH]cc2-c2ccc(F)c(-c3ccc(CN4CCOCC4)cn3)c2)n1 [Example 181, 4-[(6-{2-Fluoro-5-[3-(6-methylpyridin-2-yl)-1H-pyrazol-4-yl]phenyl}pyridin-3-yl)methyl]morpholine]?
**A.** IC50 (NRK-49F cells): 20 nM; melting point: 68 to 70 °C

**Q.** With Cc1cccc(-c2n[nH]cc2-c2ccc(F)c(-c3cc[nH]c3)c2)n1 [Example 189, 2-{4-[4-Fluoro-3-(1H-pyrrol-3-yl)phenyl]-1H-pyrazol-3-yl}-6-methylpyridine] as the compound, how does the IC50 (NRK-49F cells) read?
**A.** 20 nM

**Q.** What about the melting point of the same compound?
**A.** 162 to 164 °C

**Q.** Which IC50 (NRK-49F cells) does the source give for Cc1cccc(-c2n[nH]cc2-c2ccc(F)c(-c3ccc(S(N)(=O)=O)cc3)c2)n1 [Example 190, 2′-Fluoro-5′-[3-(6-methylpyridin-2-yl)-1H-pyrazol-4-yl]-1,1′-biphenyl-4-sulfonamide] here?
**A.** 40 nM

**Q.** What about the melting point of the same compound?
**A.** 115 to 118 °C

**Q.** Which IC50 (NRK-49F cells) does the source give for Cc1cccc(-c2n[nH]cc2-c2ccc(F)c(-c3cn[nH]c3)c2)n1 [Example 194, 2-{4-[4-Fluoro-3-(1H-pyrazol-4-yl)phenyl]-1H-pyrazol-3-yl}-6-methylpyridine] here?
**A.** 10 nM

**Q.** What about the melting point of the same compound?
**A.** 110 to 112 °C

**Q.** Which results are given for Cc1cccc(-c2n[nH]cc2-c2ccc(F)c(-c3cnn(C)c3)c2)n1 [Example 195, 2-{4-[4-Fluoro-3-(1-methyl-1H-pyrazol-4-yl)phenyl]-1H-pyrazol-3-yl}-6-methylpyridine]?
**A.** IC50 (NRK-49F cells): 10 nM; melting point: 155 to 156 °C

**Q.** Which IC50 (NRK-49F cells) does the source give for NS(=O)(=O)c1ccc(-c2cc(-c3c[nH]nc3-c3ccccn3)ccc2F)cc1 [Example 202, 2′-Fluoro-5′-(3-pyridin-2-yl-1H-pyrazol-4-yl)-1,1′-biphenyl-4-sulfonamide] here?
**A.** 290 nM

**Q.** And the melting point?
**A.** 128 °C

**Q.** Which results are given for Cc1cccc(-c2n[nH]cc2-c2ccc(F)c(-c3c[nH]cn3)c2)n1 [Example 206, 2-{4-[4-Fluoro-3-(1H-imidazol-4-yl)phenyl]-1H-pyrazol-3-yl}-6-methylpyridine]?
**A.** IC50 (NRK-49F cells): 10 nM; melting point: 229 to 233 °C

**Q.** Which IC50 (NRK-49F cells) does the source give for Cc1cccc(-c2n[nH]cc2-c2ccc(F)c(-c3c[nH]c(CCO)n3)c2)n1 [Example 209, 2-(4-{2-Fluoro-5-[3-(6-methylpyridin-2-yl)-1H-pyrazol-4-yl]phenyl}-1H-imidazol-2-yl)ethanol] here?
**A.** 50 nM

**Q.** What about the melting point of the same compound?
**A.** 219 to 220 °C

**Q.** Which IC50 (NRK-49F cells) does the source give for Cc1cccc(-c2n[nH]cc2-c2ccc(F)c(-c3cn4c(n3)S(=O)(=O)CC4)c2)n1 [Example 212, 6-{2-Fluoro-5-[3-(6-methylpyridin-2-yl)-1H-pyrazol-4-yl]phenyl}-2,3-dihydroimidazo[2,1-b][1,3]thiazole 1,1-dioxide] here?
**A.** 110 nM

**Q.** And the melting point?
**A.** 134 to 138 °C

**Q.** With Cc1cccc(-c2nc(N)sc2-c2ccc(F)c(-c3cnn(C)c3)c2)n1 [Example 217, 5-[4-Fluoro-3-(1-methyl-1H-pyrazol-4-yl)phenyl]-4-(6-methylpyridin-2-yl)-1,3-thiazol-2-amine] as the compound, how does the IC50 (NRK-49F cells) read?
**A.** 10 nM

**Q.** And the melting point?
**A.** 153 to 155 °C

Reference: patent publication US20070275968A1, “Substituted Biphenyl Derivative” (priority 2004, published 2007)
